Reference: patent US20230312587A1, “PTERIDINONE COMPOUNDS AND USES THEREOF” (Vertex Pharmaceutical Incorporated, priority 2018, published 2023)
Like-named read-outs stand apart in the source and are kept apart here.

Tests used:
[1] = system: Colo205-TCF/LEF-Luciferase (Luc) tumor; experiment: In vivo inhibition of TCF/LEF reporter activity in Colo-205 tumors; parameters: concentration or dose not given beside the values; details: TCF/LEF luciferase reporter in Colo-205 tumors, nu/nu mice, oral gavage
Summary of the method: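 Female nu/nu mice carried subcutaneous Colo205-TCF/LEF-luciferase tumours (200–500 mm^3), n=4 per group. Compound was given by oral gavage in 1:3:5:1 EtOH:DMSO:PEG-400:H2O at 10 ml/kg, with vehicle as control. Luciferase activity in tumour lysates (Steady-Glo) was normalised to BCA protein.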

[2] = system: Hek293 WFS1 over-expressor; experiment: In vitro cell viability (CellTiter-Glo), Hek293 WFS1 over-expressor; format: cell-based; details: read-out: Hek293 WFS1 viability
Experimental: WFS1 cDNA is amplified from clone RC202901 (Origene Technologies) with primers 5′-TCCGCGGCCCCAAGCTTATCGCCATGGACTCCAACACTGC-3′ (SEQ ID NO: 1), 5′-GATGGGCCCAGATCTCGAGTCAGGCCGCCGACAGGAATG-3′ (SEQ ID NO: 2) and cloned into a retroviral mammalian expression vector pCLPCX using HD Infusion (CLONTECH) at Hind3-Xhol sites using standard procedures. The resulting clone is identified as pCLPCX_WFS1.
HEK293 (ATCC, catalog #CRL-1573) cells are plated in 10 cm dishes (Corning, product #430167) into 10 mL of complete DMEM cell culture media [DMEM (Life Technologies, product #11960-051) media supplemented with 10% FBS (Hyclone, catalog #SH30071.03), antimycotic/antibiotic (Life Technologies, product #15240-062), and Glutamax (Life Technologies, product #35050-061)] at 3×10^6 cells per dish. Cells are allowed to attach and grow overnight at 37° C. in humidified 5% CO2. Cells are co-transfected with pVSV-G, pCMV-Gag/Pol and pCLPCX_WFS1 using Fugene 6 (Promega, catalog #E2691) according to manufacturer's protocol. Separately, cells are co-transfected with pVSV-G, pCMV-Gag/Pol and pCLPCX to produce control retrovirus. Cell culture media containing retrovirus (viral supernatant) is collected at 48 and 72 hours following transfection, filtered through a 0.4 uM filter, and stored at −80° C.
HEK293 cells are plated in 6 well plates (Corning, product #3516) in 2 mL of complete DMEM cell culture media at 1×10^5 cells well and allowed to attach and grow overnight at 37° C. in humidified 5% CO2. The following day, the media is replaced with viral supernatant to which 10 ug/ml of Polybrene® (Santa Cruz Biotech, catalog #sc-134220) is added. Viral supernatant is replaced 24 hours later with complete DMEM media. Transduced cells are selected in complete DMEM cell culture media containing 1 microgram/mL of puromycin (Life Technologies, catalog #A1113803).
HEK293 cells containing empty pCLPCx vector (HEK293 empty), HEK293 cells stably over-expression WFS1 (HEK293 WFS1), HepG2, and HepG2 cells where WFS1 was depleted via CRISPR/Cas9 (HepG2 WFS1 KO) cells were plated into 96-well black plates (Corning, product #3904) in 100 microliters of complete DMEM cell culture media [DMEM (Life Technologies, product #11960-051) media supplemented with 10% FBS (Hyclone, catalog #SH30071.03), antimycotic/antibiotic (Life Technologies, product #15240-062), and Glutamax (Life Technologies, product #35050-061)] at 1,000 (HEK293) or 5,000 (HepG2) cells per well. Cells were allowed to attach and grow overnight, after which compounds are added at various concentrations. Cell viability was assessed 96 hrs after compound addition with CellTiter-Glo reagent (Promega, catalog #G7570) according to manufacturer's protocol and measurement on a Pherastar luminescence plate reader (BMG Labtech).
The IC50s for the viability of both the Hek293 empty vector and WFS1 over-expressing cells are summarized in Table 47: A<0.06 μM; 0.06 μM≤B<0.6 μM; 0.6 μM≤C<3.0 μM; D≥3.0 μM.

[3] = Homo sapiens, HEK293, Hek293 WFS1 over-expressing cells
[4] = Hek293 WFS1 over-expressing cells

Row | Compound | Percent Remaining Activity at 8 hrs after Dosing [1] | IC50 [2, 3] | IC50 [2, 4]
1 | Cc1nc(N[C@@H]2CC[C@@H](Oc3cc(F)c(F)c(F)c3)C2)nc2c1N(C)C(=O)[C@H](C)N2C [Compound 272, (S)-4,5,7,8-tetramethyl-2-(((1R,3R)-3-(3,4,5-trifluorophenoxy)cyclopentyl)amino)-7,8-dihydropteridin-6(5H)-one] | 14% | < 60 nM | 
2 | Cc1nc(NCc2cnn(Cc3ccc(F)cc3)c2)nc2c1N(C)C(=O)[C@H](C)N2C [Compound 1, (7S)-2-(((1-(4-fluorobenzyl)-1H-pyrazol-4-yl)methyl)amino)-4,5,7,8-tetramethyl-7,8-dihydropteridin-6(5H)-one] | 32% | < 60 nM | 
3 | Cc1nc(NCc2cnn(Cc3cccc(C(C)C)c3)c2)nc2c1NC(=O)[C@H](C)N2C [Compound 80, (7S)-2-(((1-(3-isopropylbenzyl)-1H-pyrazol-4-yl)methyl)amino)-4,7,8-trimethyl-7,8-dihydropteridin-6(5H)-one] | 34% | < 60 nM | 
4 | Cc1nc(NCc2cnn(Cc3ccc(F)nc3)c2)nc2c1NC(=O)[C@H](C1CC1)N2C [Compound 421, (7S)-7-cyclopropyl-2-(((1-((6-fluoropyridin-3-yl)methyl)-1H-pyrazol-4-yl)methyl)amino)-4,8-dimethyl-7,8-dihydropteridin-6(511)-one] | 23% |  | 60 to 600 nM
5 | Cc1nc(NCc2cnn(Cc3ccc(F)nc3)c2)nc2c1NC(=O)[C@H](C)N2C [Compound 77] | 30% | 60 to 600 nM | 
6 | Cc1nc(NCc2cnn(Cc3cc(C(F)(F)F)nn3C)c2)nc2c1NC(=O)[C@H](C(C)C)N2C [Compound 397, (7S)-7-Isopropyl-4,8-dimethyl-2-(((1-((1-methyl-3-(trifluoromethyl)-1H-pyrazol-5-yl)methyl)-1H-pyrazol-4-yl)methyl)amino)-7,8-dihydropteridin-6(5H)-one] | 23% | < 60 nM | 
7 | Cc1nc(NCc2ccc(-n3cc(C(F)(F)F)cn3)nc2)nc2c1NC(=O)[C@H](C)N2C [Compound 143, (S)-4,7,8-trimethyl-2-(((6-(4-(trifluoromethyl)-1H-pyrazol-1-yl)pyridin-3-yl)methyl)amino)-7,8-dihydropteridin-6(5H)-one] |  | 60 to 600 nM | 
8 | Cc1cc(F)ncc1Cn1cc(CNc2nc(C)c3c(n2)N(C)[C@@H](C)C(=O)N3)cn1 [Compound 94, (7S)-2-(((1-((6-fluoro-4-methylpyridin-3-yl)methyl)-1H-pyrazol-4-yl)methyl)amino)-4,7,8-trimethyl-7,8-dihydropteridin-6(5H)-one] |  | < 60 nM | 
9 | Cc1nc(NCc2cn(Cc3ccc(C(F)(F)F)nc3)nc2Br)nc2c1NC(=O)[C@H](C)N2C [Compound 412, (S)-2-(((3-bromo-1-((6-(trifluoromethyl)pyridin-3-yl)methyl)-1H-pyrazol-4-yl)methyl)amino)-4,7,8-trimethyl-7,8-dihydropteridin-6(5H)-one] |  | 60 to 600 nM | 
10 | CC[C@H]1C(=O)Nc2cnc(NCc3cnn(Cc4ccc(F)cc4)c3)nc2N1C [Compound 9, (7S)-7-ethyl-2-(((1-(4-fluorobenzyl)-1H-pyrazol-4-yl)methyl)amino)-8-methyl-7,8-dihydropteridin-6(5H)-one] |  | 60 to 600 nM | 
11 | COc1cc(F)ccc1Cn1cc(CNc2nc(C)c3c(n2)N(C)[C@@H](C)C(=O)N3)cn1 [Compound 83, (7S)-2-(((1-(4-fluoro-2-methoxybenzyl)-1H-pyrazol-4-yl)methyl)amino)-4,7,8-trimethyl-7,8-dihydropteridin-6(5H)-one] |  | < 60 nM | 
12 | Cc1nc(NCc2cnn(Cc3ccc(C(F)(F)F)nc3C(C)O)c2)nc2c1NC(=O)[C@H](C)N2C (stereo partly drawn) [Compound 419, (7S)-2-(((1-((2-((S)-1-hydroxyethyl)-6-(trifluoromethyl)pyridin-3-yl)methyl)-1H-pyrazol-4-yl)methyl)amino)-4,7,8-trimethyl-7,8-dihydropteridin-6(5H)-one] |  | 60 to 600 nM | 
13 | Cc1ncc(Cn2cc(CNc3nc(C)c4c(n3)N(C)[C@@H](C)C(=O)N4)cn2)cn1 [Compound 163, (7S)-4,7,8-trimethyl-2-(((1-((2-methylpyrimidin-5-yl)methyl)-1H-pyrazol-4-yl)methyl)amino)-7,8-dihydropteridin-6(5H)-one] |  | ≥ 3000 nM | 
14 | Cc1nc(N[C@H]2C[C@@H](Oc3cc(F)c(F)c(F)c3)C2)nc2c1NC(=O)[C@H](C)N2C [Compound 247, (7S)-4,7,8-trimethyl-2-((cis-3-(3,4,5-trifluorophenoxy)cyclobutyl)amino)-7,8-dihydropteridin-6(5H)-one] |  | ≥ 3000 nM | 
15 | Cc1nc(N[C@@H]2CC[C@@H](n3ccc(C(F)(F)F)n3)C2)nc2c1NC(=O)[C@H](C)N2C (single isomer, unassigned) [Compound 311] |  | < 60 nM | 
16 | Cc1cnc(C(F)(F)F)nc1-n1cc(CNc2ncc3c(n2)N(C)[C@@H](C)C(=O)N3)cn1 [Compound 164, (7S)-7,8-dimethyl-2-(((1-(5-methyl-2-(trifluoromethyl)pyrimidin-4-yl)-1H-pyrazol-4-yl)methyl)amino)-7,8-dihydropteridin-6(5H)-one] |  | 600 to 3000 nM | 
17 | Cc1nc(NCc2cnn(Cc3ccc(C(F)(F)F)nc3Cl)c2)nc2c1NC(=O)[C@H](C)N2C [Compound 418, (7S)-2-(((1-((2-chloro-6-(trifluoromethyl)pyridin-3-yl)methyl)-1H-pyrazol-4-yl)methyl)amino)-4,7,8-trimethyl-7,8-dihydropteridin-6(5H)-one] |  | < 60 nM | 
18 | CC(=O)N(Cc1cnn(Cc2ccc(C(F)(F)F)nc2)c1)c1nc(C)c2c(n1)N(C)[C@@H](C)C(=O)N2 [Compound 405, (7S)-N-((1-((6-(trifluoromethyl)pyridin-3-yl)methyl)-1H-pyrazol-4-yl)methyl)-N-(4,7,8-trimethyl-6-oxo-5,6,7,8-tetrahydropteridin-2-yl)acetamide] |  | ≥ 3000 nM | 
19 | (7S)-2-(((1-((6-fluoro-2-isopropylpyridin-3-yl)methyl)-1H-pyrazol-4-yl)methyl)(methyl)amino)-7-isopropyl-4,8-dimethyl-7,8-dihydropteridin-6(5H)-one [Compound 430] |  |  | < 60 nM
20 | Cc1nn(C)cc1Cn1cc(CNc2nc(C)c3c(n2)N(C)[C@@H](C)C(=O)N3)cn1 [Compound 139, (7S)-2-(((1-((1,3-dimethyl-1H-pyrazol-4-yl)methyl)-1H-pyrazol-4-yl)methyl)amino)-4,7,8-trimethyl-7,8-dihydropteridin-6(5H)-one] |  | ≥ 3000 nM | 
21 | Cc1nc(N[C@H]2C[C@@H](COc3ccc(C(F)(F)F)cn3)C2)nc2c1NC(=O)[C@H](C)N2C [Compound 356, (7S)-4,7,8-trimethyl-2-((cis-3-(((5-(trifluoromethyl)pyridin-2-yl)oxy)methyl)cyclobutyl)amino)-7,8-dihydropteridin-6(5H)-one] |  | < 60 nM | 
22 | Cc1nc(N[C@H]2C[C@H](Oc3ccc(F)cc3)C2)nc2c1N(C)C(=O)[C@H](C)N2C [Compound 250, (7S)-2-((trans-3-(4-fluorophenoxy)cyclobutyl)amino)-4,5,7,8-tetramethyl-7,8-dihydropteridin-6(5H)-one] |  | 60 to 600 nM | 
23 | Cc1nc(NCc2cnn(Cc3cncc(F)c3)c2)nc2c1NC(=O)[C@H](C(C)C)N2C [Compound 415, (7S)-2-(((1-((5-fluoropyridin-3-yl)methyl)-1H-pyrazol-4-yl)methyl)amino)-7-isopropyl-4,8-dimethyl-7,8-dihydropteridin-6(5H)-one] |  | < 60 nM | 
